Where a name gives a salt, the structure may show the parent alone.
Target: T1, Nav1.7 (or SCN9A) channel (Homo sapiens, UniProt Q15858)
T1 construct: expressed in transfected cells
Test: Nav1.7 (hSCN9A) channel block, PatchXpress whole-cell electrophysiology
Format: cell-based
Settings: PatchXpress platform; HEK cells stably transfected with hSCN9A; estimated IC-50 calculated from single point % inhibition at V1/2; read-out: Nav1.7 EIC50
Experimental: The ability of the compounds of formula (I) to block the Nav1.7 (or SCN9A) channel were measured using the assay described below.
Human Embryonic Kidney (HEK) cells were transfected with an hSCN9A construct using lipofectamine reagent (Invitrogen), using standard techniques. Cells stably expressing the hSCN9A constructs were identified by their resistance to G-418 (400 μg/ml). Clones were screened for expression using the whole-cell voltage-clamp technique.
HEK cells stably transfected with hSCN9A were maintained in DMEM medium supplemented with 10% heat-inactivated fetal bovine serum and 400 μg/ml G-418 in an incubator at 37° C. with a humidified atmosphere of 10% CO2. For HTS, cells were harvested from flasks by trypsinization and replated in an appropriate multi-well plate (typically 96 or 384 wells/plate) such that confluence would be achieved within 24 hours of plating. For electrophysiological studies, cells were removed from the culture flask by brief trypsinization and re-plated at low density onto glass cover slips. Cells were typically used for electrophysiological experiments within 24 to 72 hours after plating.
Cover slips containing HEK cells expressing hSCN9A were placed in a bath on the stage of an inverted microscope and perfused (approximately 1 ml/minutes) with extracellular solution of the following composition: 138 mM NaCl, 2 mM CaCl2, 5.4 mM KCl, 1 mM MgCl2, 10 mM glucose, and 10 mM HEPES, pH 7.4, with NaOH. […] The osmolarity of the extracellular and intracellular solutions was 300 mOsm/kg and 295 mOsm/kg, respectively. All recordings were made at room temperature (22-24° C.) using AXOPATCH 200B amplifiers and PCLAMP software (Axon Instruments, Burlingame, Calif.).
hSCN9A currents in HEK cells were measured using the whole-cell configuration of the patch-clamp technique (Hamill et al., 1981). Uncompensated series resistance was typically 2 to 5 mega ohms and >85% series resistance compensation was routinely achieved. As a result, voltage errors were negligible and no correction was applied. Current records were acquired at 20 to 50 KHz and filtered at 5 to 10 KHz.
HEK cells stably transfected with hSCN9A were viewed under Hoffman contrast optics and placed in front of an array of flow pipes emitting either control or compound-containing extracellular solutions. All compounds were dissolved in dimethyl sulfoxide to make 10 mM stock solutions, which were then diluted into extracellular solution to attain the final concentrations desired. […] The voltage-dependence of inactivation was determined by applying a series of depolarizing prepulses (8 sec long in 10 mV increments) from a negative holding potential. The voltage was then immediately stepped to 0 mV to assess the magnitude of the sodium current. Currents elicited at 0 mV were plotted as a function of prepulse potential to allow estimation of the voltage at which 50% of the channels were inactivated (midpoint of inactivation or V1/2). Compounds were tested for their ability to inhibit hSCN9A sodium channels by activating the channel with a 20 msec voltage step to 0 mV following an 8 second conditioning prepulse to the empirically determined V1/2. Compound effect (% inhibition) was determined by difference in current amplitude before and after application of test compounds. […] Inhibition values <20% and >80% were excluded from the calculation.
Electrophysiological assays were conducted with PatchXpress 7000 hardware and associated software (Molecular Devices Corp). All assay buffers and solutions were identical to those used in conventional whole-cell voltage clamp experiments described above. hSCN9A cells were grown as above to 50%-80% confluency and harvested by trypsinization. Trypsinized cells were washed and resuspended in extracellular buffer at a concentration of 1×10^6 cells/ml. The onboard liquid handling facility of the PatchXpress was used for dispensing cells and application of test compounds. […]

T1 sequence (Q15858 whole entry): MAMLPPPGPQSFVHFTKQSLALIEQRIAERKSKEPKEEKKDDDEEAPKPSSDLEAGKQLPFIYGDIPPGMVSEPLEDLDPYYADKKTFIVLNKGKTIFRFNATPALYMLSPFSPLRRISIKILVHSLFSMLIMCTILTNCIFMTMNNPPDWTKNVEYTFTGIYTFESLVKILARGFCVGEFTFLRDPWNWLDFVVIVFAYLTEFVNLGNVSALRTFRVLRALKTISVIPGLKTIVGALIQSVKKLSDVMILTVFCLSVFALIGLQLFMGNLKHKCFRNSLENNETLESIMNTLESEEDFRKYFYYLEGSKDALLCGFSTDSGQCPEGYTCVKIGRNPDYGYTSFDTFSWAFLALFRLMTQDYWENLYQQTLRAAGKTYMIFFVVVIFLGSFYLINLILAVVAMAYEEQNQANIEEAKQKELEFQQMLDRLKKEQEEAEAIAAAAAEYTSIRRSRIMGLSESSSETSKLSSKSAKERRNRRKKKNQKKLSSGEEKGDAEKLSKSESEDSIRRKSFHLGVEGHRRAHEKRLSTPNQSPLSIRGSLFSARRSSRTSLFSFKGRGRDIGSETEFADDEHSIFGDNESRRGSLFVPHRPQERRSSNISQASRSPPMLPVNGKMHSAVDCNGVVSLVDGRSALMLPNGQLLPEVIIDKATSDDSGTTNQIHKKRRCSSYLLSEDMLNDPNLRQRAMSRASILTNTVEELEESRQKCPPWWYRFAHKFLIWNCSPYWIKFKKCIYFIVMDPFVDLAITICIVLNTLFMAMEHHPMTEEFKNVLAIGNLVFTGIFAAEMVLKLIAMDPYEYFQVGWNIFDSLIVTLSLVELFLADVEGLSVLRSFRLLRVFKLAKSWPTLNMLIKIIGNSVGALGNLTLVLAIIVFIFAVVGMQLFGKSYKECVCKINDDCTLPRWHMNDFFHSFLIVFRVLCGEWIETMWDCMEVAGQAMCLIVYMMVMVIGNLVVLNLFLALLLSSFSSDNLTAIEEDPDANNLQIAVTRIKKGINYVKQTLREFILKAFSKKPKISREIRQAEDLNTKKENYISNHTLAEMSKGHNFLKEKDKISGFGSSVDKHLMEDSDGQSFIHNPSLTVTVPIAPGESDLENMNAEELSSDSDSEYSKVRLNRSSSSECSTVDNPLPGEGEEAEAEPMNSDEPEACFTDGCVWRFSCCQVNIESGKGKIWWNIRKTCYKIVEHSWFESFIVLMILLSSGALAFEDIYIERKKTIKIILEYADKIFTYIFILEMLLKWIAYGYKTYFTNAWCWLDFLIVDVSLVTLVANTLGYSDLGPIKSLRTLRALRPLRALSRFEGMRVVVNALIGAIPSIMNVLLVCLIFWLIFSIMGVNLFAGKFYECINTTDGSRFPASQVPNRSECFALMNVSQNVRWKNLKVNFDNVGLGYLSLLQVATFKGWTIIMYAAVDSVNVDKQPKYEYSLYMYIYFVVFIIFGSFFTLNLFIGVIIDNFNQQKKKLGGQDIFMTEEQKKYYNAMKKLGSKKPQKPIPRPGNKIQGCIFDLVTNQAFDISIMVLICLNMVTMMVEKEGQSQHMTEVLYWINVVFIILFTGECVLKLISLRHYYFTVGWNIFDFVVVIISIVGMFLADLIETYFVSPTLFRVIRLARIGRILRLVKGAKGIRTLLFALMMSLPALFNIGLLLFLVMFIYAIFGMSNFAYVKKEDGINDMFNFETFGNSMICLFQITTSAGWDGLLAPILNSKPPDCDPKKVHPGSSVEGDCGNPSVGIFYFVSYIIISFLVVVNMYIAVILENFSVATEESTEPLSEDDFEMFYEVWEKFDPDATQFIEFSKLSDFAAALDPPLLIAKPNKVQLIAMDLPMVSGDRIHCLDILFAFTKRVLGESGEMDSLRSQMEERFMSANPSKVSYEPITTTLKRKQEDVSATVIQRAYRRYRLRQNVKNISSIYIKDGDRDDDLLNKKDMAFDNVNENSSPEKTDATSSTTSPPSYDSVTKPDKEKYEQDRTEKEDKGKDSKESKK

Going from `CC(C)COc1ncc(OCc2cc(F)c(C(=O)NS(C)(=O)=O)cc2F)cc1Cl` [Example 1, 4-{[(5-Chloro-6-isobutoxypyridin-3-yl)oxy]methy}-2,5-difluoro-N-(methylsulfonyl)benzamide diethylamine salt] to `[2H]C(C)(C)Oc1ncc(OCc2cc(F)c(C(=O)NS(C)(=O)=O)cc2F)cc1Cl` [Example 24, 4-{[(5-Chloro-6-d1-isopropoxypyridin-3-yl)oxy]methyl}-2,5-difluoro-N-(methylsulfonyl)benzamide], the IC50 rises from 13.9 nM to 140 nM (10-fold).

First: CC(C)COc1ncc(OCc2ccc(C(=O)NS(C)(=O)=O)cc2)cc1Cl [Example 3, 4-{[(5-Chloro-6-isobutoxypyridin-3-yl)oxy]methyl}-N-(methylsulfonyl)benzamide diethylamine salt]
Second: COc1ncc(OCc2ccc(C(=O)NS(C)(=O)=O)cc2)cc1Cl [Example 6, 4-((5-Chloro-6-methoxypyridin-3-yloxy)methyl)-N-(methylsulfonyl)benzamide]
The IC50 of the first is 11-fold lower: 324 nM for the first, 3580 nM for the second. The first is the more potent here.

Going from `COc1ncc(OCc2cc(F)c(C(=O)NS(=O)(=O)C3CC3)cc2F)cc1Cl` [Example 4, 4-((5-Chloro-6-methoxypyridin-3-yloxy)methyl)-N-(cyclopropylsulfonyl)-2,5-difluorobenzamide] to `COc1ncc(OCc2cc(F)c(C(=O)NS(C)(=O)=O)cc2F)cc1Cl` [Example 28, 4-((5-Chloro-6-methoxypyridin-3-yloxy)methyl)-2,5-difluoro-N-(methylsulfonyl)benzamide], the IC50 rises from 2600 nM to 7440 nM (2.9-fold).

Compared with `COc1cc(C(=O)NS(C)(=O)=O)ccc1COc1cnc(OCC(C)C)c(Cl)c1` [Example 5, 4-((5-Chloro-6-isobutoxypyridin-3-yloxy)methyl)-3-methoxy-N-(methylsulfonyl)benzamide diethylamine salt], `CC(C)(F)COc1ncc(OCc2cc(F)c(C(=O)NS(C)(=O)=O)cc2F)cc1Cl` [Example 13, 4-((5-Chloro-6-(2-fluoro-2-methylpropoxy)pyridin-3-yloxy)methyl)-2,5-difluoro-N-(methylsulfonyl)benzamide] is 3.5-fold lower in IC50: 281 nM for the first, 81.4 nM for the second.

Going from `COc1ccc(OCc2ccc(C(=O)NS(C)(=O)=O)cc2)cn1` [Example 7, 4-{[(6-Methoxypyridin-3-yl)oxy]methyl}-N-(methylsulfonyl)benzamide] to `CS(=O)(=O)NC(=O)c1ccc(COc2cncc(Cl)c2)cc1` [Example 10, 4-((5-Chloropyridin-3-yloxy)methyl)-N-(methylsulfonyl)benzamide], the IC50 falls from 35700 nM to 8460 nM (4.2-fold). The second is the more potent here.

`CS(=O)(=O)NC(=O)c1ccc(OCc2ccc(C(F)(F)F)nc2)cc1` [Example 9, N-(methylsulfonyl)-4-{[6-(trifluoromethyl)pyridin-3-yl]methoxy}benzamide formate salt] and `CS(=O)(=O)NC(=O)c1cc(F)c(COc2ccc(C(F)(F)F)nc2)cc1F` [Example 26, 2,5-Difluoro-N-(methylsulfonyl)-4-({[6-(trifluoromethyl)pyridin-3-yl]oxy}methyl)benzamide] cannot be ordered by IC50: greater than 1000 nM for the first, 4980 nM for the second.

Going from `CS(=O)(=O)NC(=O)c1cc(F)c(COc2cnc(OCCC(F)(F)F)c(Cl)c2)cc1F` [Example 11, 4-({[5-Chloro-6-(3,3,3-trifluoropropoxy)pyridin-3-yl]oxy}methyl)-2,5-difluoro-N-(methylsulfonyl)benzamide] to `CS(=O)(=O)NC(=O)c1cc(F)c(COc2cnc(OCC(F)(F)F)c(Cl)c2)cc1F` [Example 16, 4-((5-Chloro-6-(2,2,2-trifluoroethoxy)pyridin-3-yloxy)methyl)-2,5-difluoro-N-(methylsulfonyl)benzamide], the IC50 rises from 39.2 nM to 150 nM (3.8-fold). The first is the more potent here.

Compared with `CS(=O)(=O)NC(=O)c1cc(F)c(COc2cnc(C(F)(F)F)c(Cl)c2)cc1F` [Example 12, 4-({[5-Chloro-6-(trifluoromethyl)pyridin-3-yl]oxy}methyl)-2,5-difluoro-N-(methylsulfonyl)benzamide], `CC(Oc1ncc(OCc2cc(F)c(C(=O)NS(C)(=O)=O)cc2F)cc1Cl)C(F)(F)F` (stereo not shown) [Example 27, 4-((5-Chloro-6-(1,1,1-trifluoropropan-2-yloxy)pyridin-3-yloxy)methyl)-2,5-difluoro-N-(methylsulfonyl)benzamide] is 20-fold lower in IC50: 843 nM for the first, 42 nM for the second.

Going from `CC1(COc2ncc(OCc3cc(F)c(C(=O)NS(C)(=O)=O)cc3F)cc2Cl)CC1` [Example 14, 4-((5-Chloro-6-((1-methylcyclopropyl)methoxy)pyridin-3-yloxy)methyl)-2,5-difluoro-N-(methylsulfonyl)benzamide] to `CS(=O)(=O)NC(=O)c1cc(F)c(COc2cnc(OCC3CC3)c(Cl)c2)cc1F` [Example 17, 4-((5-Chloro-6-(cyclopropylmethoxy)pyridin-3-yloxy)methyl)-2,5-difluoro-N-(methylsulfonyl)benzamide], the IC50 rises from 66.8 nM to 156 nM (2.3-fold).

First: [2H]C([2H])([2H])C(Oc1ncc(OCc2cc(F)c(C(=O)NS(C)(=O)=O)cc2F)cc1Cl)(C([2H])([2H])[2H])C([2H])([2H])[2H] [Example 15]
Second: [2H]C([2H])([2H])C([2H])(Oc1ncc(OCc2cc(F)c(C(=O)NS(C)(=O)=O)cc2F)cc1Cl)C([2H])([2H])[2H] [Example 21, 4-{[(5-Chloro-6-d7-isopropoxypyridin-3-yl)oxy]methyl}-2,5-difluoro-N-(methylsulfonyl)benzamide]
The IC50 of the first is 5.2-fold lower: 30.8 nM for the first, 161 nM for the second.

Going from `CC(C)(C)Oc1ncc(OCc2cc(F)c(C(=O)NS(C)(=O)=O)cc2F)cc1Cl` [Example 18, 4-((6-tert-Butoxy-5-chloropyridin-3-yloxy)methyl)-2,5-difluoro-N-(methylsulfonyl)benzamide] to `CS(=O)(=O)NC(=O)c1cc(F)c(COc2cnc(OCC(F)(F)C(F)F)c(Cl)c2)cc1F` [Example 22, 4-({[5-Chloro-6-(2,2,3,3-tetrafluoropropoxy)pyridin-3-yl]oxy}methyl)-2,5-difluoro-N-(methylsulfonyl)benzamide], the IC50 falls from 80.6 nM to 9.2 nM (8.8-fold).

Going from `CS(=O)(=O)NC(=O)c1cc(F)c(COc2cnc(OCC3CC(F)(F)C3)c(Cl)c2)cc1F` [Example 19, 4-((5-Chloro-6-((3,3-difluorocyclobutyl)methoxy)pyridin-3-yloxy)methyl)-2,5-difluoro-N-(methylsulfonyl)benzamide] to `CS(=O)(=O)NC(=O)c1cc(F)c(COc2cnc(OCC(F)(F)C(F)(F)F)c(Cl)c2)cc1F` [Example 25, 4-({[5-Chloro-6-(2,2,3,3,3-pentafluoropropoxy)pyridin-3-yl]oxy}methyl)-2,5-difluoro-N-(methylsulfonyl)benzamide], the IC50 falls from 730 nM to 18.6 nM (39-fold). The second is the more potent here.

Compared with `CS(=O)(=O)NC(=O)c1cc(F)c(COc2cncc(Cl)c2)cc1F` [Example 20, 4-{[(5-Chloropyridin-3-yl)oxy]methyl}-2,5-difluoro-N-(methylsulfonyl)benzamide], `CC(Oc1ncc(OCc2cc(F)c(C(=O)NS(C)(=O)=O)cc2Cl)cc1Cl)C(F)(F)F` (stereo not shown) [Example 31, 5-Chloro-4-((5-chloro-6-(1,1,1-trifluoropropan-2-yloxy)pyridin-3-yloxy)methyl)-2-fluoro-N-(methylsulfonyl)benzamide] is lower in IC50: greater than 3000 nM for the first, less than 100 nM for the second.

Going from `CC(C)Oc1ncc(COc2cc(F)c(C(=O)NS(C)(=O)=O)cc2F)cc1Cl` [Example 29, 4-((5-Chloro-6-isopropoxypyridin-3-yl)methoxy)-2,5-difluoro-N-(methylsulfonyl)benzamide diethylamine salt] to `CS(=O)(=O)NC(=O)c1cc(Cl)c(COc2cnc(OC(C(F)(F)F)C(F)(F)F)c(Cl)c2)cc1F` [Example 30, 5-Chloro-4-((5-chloro-6-(1,1,1,3,3,3-hexafluoropropan-2-yloxy)pyridin-3-yloxy)methyl)-2-fluoro-N-(methylsulfonyl)benzamide], the IC50 falls from 838 nM to less than 100 nM. The second is the more potent here.

— patent US9102621B2, “Acyl sulfonamide compounds” (Pfizer Limited, priority 2010, dated 2015)
